Assay results taken from US7569601B2, “Cycloalkylidene compounds as modulators of estrogen receptor” (SmithKline Beecham Corporation, priority 2003, dated 2009).

| melting point [°C] | Structure (SMILES) |
| --- | --- |
| 219 to 220 | CC1(C)CC(=C(c2ccc(O)cc2)c2ccc(/C=C/C(=O)O)cc2)CC(C)(C)C1 [Example 6, (2E)-3-{4-[(4-Hydroxyphenyl)(3,3,5,5-tetramethylcyclohexylidene)methyl]phenyl}-2-propenoic acid] |
| 118 to 121 | CC(=O)Nc1ccc(C(=C2CC(C)(C)CC(C)(C)C2)c2ccc(O)cc2)cc1 [Example 21, N-{4-[(4-hydroxyphenyl)(3,3,5,5-tetramethylcyclohexylidene)methyl]phenyl}acetamide] |
| 122 to 124 | CC1(C)CC(=C(c2ccc(O)cc2)c2ccc(OCCOCCO)cc2)CC(C)(C)C1 [Example 23, 4-[[4-({2-[(2-Hydroxyethyl)oxy]ethyl}oxy)phenyl](3,3,5,5-tetramethylcyclohexylidene)methyl]phenol] |
| 149 to 150 | CC1(C)CC(=C(c2ccc(O)cc2)c2ccc(S(C)(=O)=O)cc2)CC(C)(C)C1 [Example 30, 4-[[4-(Methylsulfonyl)phenyl](3,3,5,5 tetramethylcyclohexylidene)methyl]phenol] |
| 209 to 210 | CC1(C)CC(=C(c2ccc(O)cc2)c2ccc(C(N)=O)cc2)CC(C)(C)C1 [Example 31, 4-[(4-hydroxyphenyl)(3,3,5,5-tetramethylcyclohexylidene)methyl]benzamide] |
| 154 to 155 | CC1(C)CC(=C(c2ccc(O)cc2)c2ccc(OCCO)cc2)CC(C)(C)C1 [Example 32, 4-[{4-[(2-Hydroxyethyl)oxy]phenyl}(3,3,5,5-tetramethylcyclohexylidene)methyl]phenol] |
| 155 to 156 | O=C(O)/C=C/c1ccc(C(=C2CCCCCC2)c2ccc(O)c(Cl)c2)cc1 [Example 42, (2E)-3-{4-[(3-Chloro-4-hydroxyphenyl)(cycloheptylidene)methyl]phenyl}-2-propenoic acid] |
| 111 to 114 | CC1(C)CC(=C(c2ccc(/C=C/C(=O)O)cc2)c2ccc(O)c(Cl)c2)CC(C)(C)C1 [Example 43, (2E)-3-{4-[(3-Chloro-4-hydroxyphenyl)(3,3,5,5-tetramethylcyclohexylidene)methyl]phenyl}-2-propenoic acid] |
| 118 to 121 | CC1(C)CC(=C(c2ccc(/C=C/C(=O)O)cc2)c2ccc(O)c(Cl)c2)CC(C)(C)O1 [Example 44, (2E)-3-{4-[(3-Chloro-4-hydroxyphenyl)(2,2,6,6-tetramethyltetrahydro-4H-pyran-4-ylidene)methyl]phenyl}-2-propenoic acid] |
| 164 to 165 | O=C(O)/C=C/c1ccc(C(=C2CCCCCC2)c2ccc(O)c(F)c2)cc1 [Example 45, (2E)-3-{4-[(3-fluoro-4-hydroxyphenyl)(cycloheptylidene)methyl]phenyl}-2-propenoic acid] |
| 125 to 128 | CC1(C)CC(=C(c2ccc(/C=C/C(=O)O)cc2)c2ccc(O)c(F)c2)CC(C)(C)O1 [Example 46, (2E)-3-{4-[(3-fluoro-4-hydroxyphenyl)(2,2,6,6-tetramethyltetrahydro-4H-pyran-4-ylidene)methyl]phenyl}-2-propenoic acid] |
| 193 to 195 | CC1(C)CC(=C(c2ccc(/C=C/C(=O)O)cc2)c2ccc(O)c(F)c2)CC(C)(C)C1 [Example 47, (2E)-3-{4-[(3-fluoro-4-hydroxyphenyl)(3,3,5,5-tetramethylcyclohexylidene)methyl]phenyl}-2-propenoic acid] |
| 141 to 142 | CC1(C)CC(=C(c2ccc(O)cc2)c2ccc(C#CCO)cc2)CC(C)(C)C1 [Example 48, 4-[[4-(3-hydroxy-1-propyn-1-yl)phenyl](3,3,5,5-tetramethylcyclohexylidene)methyl]phenol] |
| 138 to 139 | C#Cc1ccc(C(=C2CC(C)(C)CC(C)(C)C2)c2ccc(O)cc2)cc1 [Example 49, 4-[(4-Ethynylphenyl)(3,3,5,5-tetramethylcyclohexylidene)methyl]phenol] |
| 220 to 221 | CC1(C)CC(=C(c2ccc(O)cc2)c2ccc(CC(=O)O)cc2)CC(C)(C)C1 [Example 51, {4-[(4-Hydroxyphenyl)(3,3,5,5-tetramethylcyclohexylidene)methyl]phenyl}acetic acid] |
| 243 to 244 | CC1(C)CC(=C(c2ccc(O)cc2)c2ccc(CCC(=O)O)cc2)CC(C)(C)C1 [Example 61, 3-{4-[(4-Hydroxyphenyl)(3,3,5,5-tetramethylcyclohexylidene)methyl]phenyl}propanoic acid] |
| 170 to 171 | O=C(O)COc1ccc(C(=C2CCCCCC2)c2ccc(O)cc2)cc1 [Example 68, ({4-[Cycloheptylidene(4-hydroxyphenyl)methyl]phenyl}oxy)acetic acid] |

| melting point [°C] | Structure (SMILES) |
| --- | --- |
| 110 to 111 | N#Cc1ccc(C(=C2CCCCCC2)c2ccc(O)cc2)cc1 [Example 77, 4-[cycloheptylidene(4-hydroxyphenyl)methyl]benzonitrile] |
| 163 to 164 | CC1(C)CC(=C(c2ccc(O)cc2)c2ccc(OCC(=O)O)cc2)CC(C)(C)C1 [Example 83, ({4-[(4-Hydroxyphenyl)(3,3,5,5-tetramethylcyclohexylidene)methyl]phenyl}oxy)acetic acid] |
| 203 to 204 | CC1(C)CC(=C(c2ccc(O)cc2)c2ccc(OCCCC(=O)O)cc2)CC(C)(C)C1 [Example 84, 4-({4-[(4-hydroxyphenyl)(3,3,5,5-tetramethylcyclohexylidene)methyl]phenyl}oxy)butanoic acid] |
| 134 to 135 | CC1(C)CC(=C(c2ccc(O)cc2)c2ccc(CO)cc2)CC(C)(C)C1 [Example 91, 4-[[4-(Hydroxymethyl)phenyl](3,3,5,5-tetramethylcyclohexylidene)methyl]phenol] |
| 159 to 160 | CC1(C)CC(=C(c2ccc(O)cc2)c2ccc(CCO)cc2)CC(C)(C)C1 [Example 92, 4-[[4-(2-Hydroxyethyl)phenyl](3,3,5,5-tetramethylcyclohexylidene)methyl]phenol] |
| 160 to 161 | CC1(C)CC(=C(c2ccc(O)cc2)c2ccc(CCCO)cc2)CC(C)(C)C1 [Example 93, 4-[[4-(3-Hydroxypropyl)phenyl](3,3,5,5-tetramethylcyclohexylidene)methyl]phenol] |
| 128 to 129 | CC1(C)CC(=C(c2ccc(O)cc2)c2ccc(-c3ccoc3)cc2)CC(C)(C)C1 [Example 94, 4-[[4-(3-furanyl)phenyl](3,3,5,5-tetramethylcyclohexylidene)methyl]phenol] |
| 125 to 126 | OCCCC#Cc1ccc(C(=C2CCCCCC2)c2ccc(O)cc2)cc1 [Example 100, 4-{Cycloheptylidene[4-(5-hydroxy-1-pentyn-1-yl)phenyl]methyl}phenol] |
| 186 to 187 | CC(C)(O)C#Cc1ccc(C(=C2CC(C)(C)CC(C)(C)C2)c2ccc(O)cc2)cc1 [Example 101, 4-[[4-(3-hydroxy-3-methyl-1-butyn-1-yl)phenyl](3,3,5,5-tetramethylcyclohexylidene)methyl]phenol] |
| 183 to 184 | CC1(C)CC(=C(c2ccc(O)cc2)c2ccc(C#CCCO)cc2)CC(C)(C)C1 [Example 102, 4-[[4-(4-hydroxy-1-butyn-1-yl)phenyl](3,3,5,5-tetramethylcyclohexylidene)methyl]phenol] |
| 233 to 234 | CC1(C)CC(=C(c2ccc(O)cc2)c2ccc(C#CCCC(=O)O)cc2)CC(C)(C)C1 [Example 103, 5-{4-[(4-Hydroxyphenyl)(3,3,5,5-tetramethylcyclohexylidene)methyl]phenyl}-4-pentynoic acid] |
| 195 to 196 | CC(=O)c1ccc(C(=C2CC(C)(C)CC(C)(C)C2)c2ccc(O)cc2)cc1 [Example 104, 1-{4-[(4-Hydroxyphenyl)(3,3,5,5-tetramethylcyclohexylidene)methyl]phenyl}ethanone] |
| 222 to 223 | CC1(C)CC(=C(c2ccc(O)cc2)c2ccc(-c3ccc(CO)cc3)cc2)CC(C)(C)C1 [Example 105, 4-[[4′-(Hydroxymethyl)-4-biphenylyl](3,3,5,5-tetramethylcyclohexylidene)methyl]phenol] |
| 197 to 198 | CC1(C)CC(=C(c2ccc(O)cc2)c2ccc(-c3cccc(CO)c3)cc2)CC(C)(C)C1 [Example 106, 4-[[3′-(Hydroxymethyl)-4-biphenylyl](3,3,5,5-tetramethylcyclohexylidene)methyl]phenol] |
| 230 to 231 | CC1(C)CC(=C(c2ccc(O)cc2)c2ccc(-c3ccccc3C(=O)O)cc2)CC(C)(C)C1 [Example 107, 4′-[(4-Hydroxyphenyl)(3,3,5,5-tetramethylcyclohexylidene)methyl]-2-biphenylcarboxylic acid] |
| 171 to 172 | CC1(C)CC(=C(c2ccc(O)cc2)c2ccc(-c3ccccc3CO)cc2)CC(C)(C)C1 [Example 108, 4-[[2′-(Hydroxymethyl)-4-biphenylyl](3,3,5,5-tetramethylcyclohexylidene)methyl]phenol] |
